pIC50: −log10 of the molar value. Where two headings read alike, the source gives them in different places.
What was measured:
HER4 = HER4 (Homo sapiens, UniProt Q15303); assay: Mobility shift assay, kinase inhibition (HER4); assay type: biochemical; details: read-out: Kinase inhibitory activity IC50 (nM) HER4
Method: (§1) Enzyme activity assay was test by the Mobility shift assay method (Expert Opin Drug Discov. 2008, 3(6): 607-621). A 10 mM stock solution of the test compound in DMSO were made after weighing. According to the required concentration, proper quantity of the 10 mM stock solution was dissolved in water to get a work solution with a concentration 5 times the final concentration. And various kinases, EGFR, HER2, HER4 were dissolved into a reaction buffer with a concentration 1.25 times the required concentration (62.5 mM HEPES, pH7.5, 0.001875% Brij-35, 12.5 mM MgCl2, 2.5 mM DTT), and get a enzyme work solution with a concentration 2.5 times the final concentration. At the same time, ATP and FAM tag peptide substrates will be dissolved in the reaction buffer with a concentration of 1.25× to get a substrate and ATP working solution with a concentration 2.5 times the required concentration. Then 5 μl the work solution of compound is added to 384 wells test plate, 5 μl 250 mM EDTA is added to a blank control, the same volume of work solution without drug is added to the negative control (Max). 10 μl Enzyme work solution is added at the same time. After mix gently and hatch for 10 minutes at room temperature, 10 μl substrate and ATP work solution are added to each well. The test plates are placed at 28 degrees for 60 mins. Then 25 μl suspending liquid is added into each reaction well (100 mM HEPES, pH7.5, 0.015% Brij-35, 0.2% Coating Reagent#3, 50 mM EDTA) to quench the enzyme reaction. Finally, the plate is put on Caliper EZ reader to collect conversion rate of the substrate in each well (The phosphorylation ratio of the substrate caused by the kinases). Based on the data described above, the kinase inhibitory of the compound can be calculated as follows: % inh=(Max−conversion)/(Max−Min)×100, wherein % inh is percent inhibition, Max is the conversion ratio of the substrate in negative control well, min is the conversion ratio of the substrate in blank control well, conversion is the conversion rate of substrate in each well with various concentration of the test compound. The % inh value of each concentration of the test compound would be analyzed in Xlift to obtain the corresponding IC50 value, the curve fitting formula is: Y=Bottom+(Top−Bottom)/(1+10^((Log IC50−X)*Hillslope))

HER2 = HER2 (Homo sapiens, UniProt P04626); assay: Mobility shift assay, kinase inhibition (HER2); assay type: biochemical; details: read-out: Kinase inhibitory activity IC50 (nM) HER2
HER2, sequence (P04626 23-1255): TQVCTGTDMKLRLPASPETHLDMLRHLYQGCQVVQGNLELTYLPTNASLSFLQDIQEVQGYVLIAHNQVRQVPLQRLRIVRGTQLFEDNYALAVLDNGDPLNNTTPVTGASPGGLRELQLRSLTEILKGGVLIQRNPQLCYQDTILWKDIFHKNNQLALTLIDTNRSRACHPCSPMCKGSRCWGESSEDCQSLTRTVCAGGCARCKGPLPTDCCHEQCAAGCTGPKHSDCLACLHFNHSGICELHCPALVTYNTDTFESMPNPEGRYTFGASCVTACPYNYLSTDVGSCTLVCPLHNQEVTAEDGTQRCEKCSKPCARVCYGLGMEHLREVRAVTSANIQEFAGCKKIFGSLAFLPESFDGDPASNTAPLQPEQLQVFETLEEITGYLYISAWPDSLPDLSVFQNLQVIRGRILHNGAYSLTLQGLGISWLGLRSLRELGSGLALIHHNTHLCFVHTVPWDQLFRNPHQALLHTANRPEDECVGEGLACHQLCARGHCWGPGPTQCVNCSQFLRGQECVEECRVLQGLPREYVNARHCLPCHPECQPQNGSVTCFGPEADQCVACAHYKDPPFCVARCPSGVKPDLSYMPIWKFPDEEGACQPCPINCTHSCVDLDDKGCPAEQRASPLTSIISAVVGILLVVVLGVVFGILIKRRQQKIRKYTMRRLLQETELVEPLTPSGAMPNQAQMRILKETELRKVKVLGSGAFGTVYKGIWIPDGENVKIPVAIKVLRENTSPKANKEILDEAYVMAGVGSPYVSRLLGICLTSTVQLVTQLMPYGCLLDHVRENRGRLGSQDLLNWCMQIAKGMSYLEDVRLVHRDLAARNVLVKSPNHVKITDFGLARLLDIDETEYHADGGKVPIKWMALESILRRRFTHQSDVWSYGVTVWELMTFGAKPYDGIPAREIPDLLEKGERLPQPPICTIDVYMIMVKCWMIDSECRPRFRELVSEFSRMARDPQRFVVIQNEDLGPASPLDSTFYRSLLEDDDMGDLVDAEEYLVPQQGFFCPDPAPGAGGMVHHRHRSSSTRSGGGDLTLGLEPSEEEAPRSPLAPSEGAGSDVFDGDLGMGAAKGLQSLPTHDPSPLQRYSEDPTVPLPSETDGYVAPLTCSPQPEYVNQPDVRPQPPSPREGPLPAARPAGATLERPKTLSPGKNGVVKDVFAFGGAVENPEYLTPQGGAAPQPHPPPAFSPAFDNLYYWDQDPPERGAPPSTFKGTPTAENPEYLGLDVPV
Method: as §1

EGFR = EGFR (Homo sapiens, UniProt P00533); assay: Mobility shift assay, kinase inhibition (EGFR); assay type: biochemical; details: read-out: Kinase inhibitory activity IC50 (nM) EGFR
EGFR, sequence (P00533 25-1210): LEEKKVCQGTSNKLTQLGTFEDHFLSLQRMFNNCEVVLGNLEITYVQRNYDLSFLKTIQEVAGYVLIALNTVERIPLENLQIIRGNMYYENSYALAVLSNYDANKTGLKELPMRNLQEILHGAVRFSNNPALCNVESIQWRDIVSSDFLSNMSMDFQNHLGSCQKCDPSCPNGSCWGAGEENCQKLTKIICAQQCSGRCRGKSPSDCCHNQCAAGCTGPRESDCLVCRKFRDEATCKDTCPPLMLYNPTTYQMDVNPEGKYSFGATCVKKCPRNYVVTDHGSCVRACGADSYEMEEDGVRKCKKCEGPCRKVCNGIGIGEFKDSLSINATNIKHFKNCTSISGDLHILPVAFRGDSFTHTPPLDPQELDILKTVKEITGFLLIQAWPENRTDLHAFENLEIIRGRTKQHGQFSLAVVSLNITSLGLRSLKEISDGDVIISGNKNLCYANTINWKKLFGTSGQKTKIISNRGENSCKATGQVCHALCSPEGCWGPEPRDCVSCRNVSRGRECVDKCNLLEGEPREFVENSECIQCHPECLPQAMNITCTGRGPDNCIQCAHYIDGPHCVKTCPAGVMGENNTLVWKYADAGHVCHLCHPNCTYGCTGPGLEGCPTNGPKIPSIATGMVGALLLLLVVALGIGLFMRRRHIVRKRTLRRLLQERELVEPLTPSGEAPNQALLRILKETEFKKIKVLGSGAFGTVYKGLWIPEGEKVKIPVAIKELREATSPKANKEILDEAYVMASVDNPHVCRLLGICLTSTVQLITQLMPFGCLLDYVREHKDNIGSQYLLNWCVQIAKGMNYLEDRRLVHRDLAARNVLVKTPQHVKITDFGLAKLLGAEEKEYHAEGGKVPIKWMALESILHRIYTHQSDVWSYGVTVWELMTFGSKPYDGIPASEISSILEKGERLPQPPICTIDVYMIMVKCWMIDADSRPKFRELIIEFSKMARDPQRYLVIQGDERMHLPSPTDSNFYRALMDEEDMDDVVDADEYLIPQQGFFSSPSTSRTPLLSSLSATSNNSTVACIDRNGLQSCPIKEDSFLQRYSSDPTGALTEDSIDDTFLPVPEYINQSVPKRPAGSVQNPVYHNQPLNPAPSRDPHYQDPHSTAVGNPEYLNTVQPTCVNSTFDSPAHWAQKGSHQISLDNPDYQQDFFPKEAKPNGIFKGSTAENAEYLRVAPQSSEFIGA
Method: as §1

NCI-H1975 = assay type: in vivo, BALB/c nude mice; details: for Tumor volume: 60 mg/kg PO QD; for Tolerability in mice: mouse, in vivo, po
From the text: Preparation method: dissolve the test compound in 20% PEG400+3% Tween80 to obtain a required concentration; dissolve the control group in 0.5% CMC+0.4% Tween80 to obtain a required concentration.
BALB/c nude mice (Shanghai xipuer-bikai experimental animals company), weight 16-18 g, female. BD matrigel, NCI-H1975 cell (ATCC)
Cells in logarithmic phase were collected. The ratio of medium to matrigel was 1:1. The concentration of cell was adjust to 3×10^7/ml and put into a ice box, then inoculated in each nude mice subcutaneously with 0.2 ml. Then carry out intragastric administration once a day for 5 days and stop administration for 2 days. Administrate for 9 days in total. Dosages are as follows:
The size and weight were measured. The length and width of tumors were measured individually with microcalipers. Tumor volume (V) and relative tumor volume (RTV) was calculated as formula. Day 12, all the nude mouse were killed and the tumors were taken out and pictured. The individual as follows: RTV=Vt/V0, where Vt is and V0 is. and the calculation formula is T/C (%)=mean RTV of the treated group/mean RTV of the control group×100%.
(1) Tumor volume (Tumor Volume, TV), calculation formula: […], wherein a and b presents length and width respectively.
(2) Relative Tumor Volume (RTV), calculation formula: RTV=Vt/V0.
Wherein TV0 is the volume on the day of initial treatment, TVt is the volume on each day of measurement.
(3) The relative tumor increment rate T/C (%), calculation formula: […]
TRTV: treated group RTV; CRTV: negative control group RTV.
Therapeutic effect of compound was expressed in terms of T/C %.

[1] = tested on: NCI-H1975 L858R T790M cell; assay: Proliferation inhibition, H1975 cells (CellTiter-Glo); assay type: cell-based; details: Homo sapiens, 48 hours
Method: (§2) This example is to determine the proliferation inhibitory activity against wide type of high expression cell lines A431 of EGFR and mutant cell lines NCI-H1975^L858RT790M, the proliferation inhibitory activity in cell-based level of compound is expressed by IC50. The test method is as follows: both cell lines are purchased from American type culture collection (ATCC). The cells are seeded in a white and opaque 384-well culture plate with a proper concentration (A431: 20000 cells/ml medium; H1975: 15000 cells/ml medium), cultured at 37° C. with 5% CO2 for 24 hrs, a series of medicine with gradient concentration is added, generally 10 concentrations, cultured for another 48 hours under the previous conditions. The assays of the proliferation inhibitory activity against the A431 and H1975 cell of the test compounds are performed by the CellTiter-Glo Luminescent Cell Viability Assay and calculate the proliferation inhibitory activity of compound with different concentrations. CellTiter-Glo Luminescent Cell Viability Assay is purchased from Promega. Fit the data of proliferation inhibitory activity against A431 and H1975 of compounds with different concentrations with 4-parameter equation.

EGFR tyrosine kinase = molecular target: T1, EGFR tyrosine kinase (Homo sapiens, UniProt P00533); assay: HTRF assay, inhibition of EGFR tyrosine kinase; assay type: biochemical; details: HTRF method
T1 construct: purchased Sigma Aldrich
T1 sequence (P00533 25-1210): as above
Method: The activity of inhibitory against the kinase of the test compound is expressed by IC50. The assays are performed by Homogeneous time-resolved fluorescence (HTRF) method which is as follows: a series of synthesized analogues with gradient concentration are incubated for 5 minutes in enzymatic solution with specific concentration (for EGFR) at room temperature. Then proper amount of substrate and ATP are added into the reaction mixture to start the enzyme reaction. The assays of the specific concentration of compound is measured by Flexstation III of Molecular device company after the stop buffer and detecting liquid are added to the enzyme reaction system and hatch at room temperature for 1 hour. And the activity of inhibitory against the kinase of the test compound with different concentration will be calculated, then according to the 4-parameter equation, fit the inhibitory activity of the test compound with different concentration to get the IC50. EGFR is purchased from Sigma Aldrich. The HTRF KinEASE-TK is purchased from Cisbio Bioassays. ATP is purchased from Sigma Aldrich.

A431 cell = assay: Proliferation inhibition, A431 cells (CellTiter-Glo); assay type: cell-based; details: Homo sapiens, A-431, 48 hours
Method: as §2

HER4, sequence (Q15303 26-1308): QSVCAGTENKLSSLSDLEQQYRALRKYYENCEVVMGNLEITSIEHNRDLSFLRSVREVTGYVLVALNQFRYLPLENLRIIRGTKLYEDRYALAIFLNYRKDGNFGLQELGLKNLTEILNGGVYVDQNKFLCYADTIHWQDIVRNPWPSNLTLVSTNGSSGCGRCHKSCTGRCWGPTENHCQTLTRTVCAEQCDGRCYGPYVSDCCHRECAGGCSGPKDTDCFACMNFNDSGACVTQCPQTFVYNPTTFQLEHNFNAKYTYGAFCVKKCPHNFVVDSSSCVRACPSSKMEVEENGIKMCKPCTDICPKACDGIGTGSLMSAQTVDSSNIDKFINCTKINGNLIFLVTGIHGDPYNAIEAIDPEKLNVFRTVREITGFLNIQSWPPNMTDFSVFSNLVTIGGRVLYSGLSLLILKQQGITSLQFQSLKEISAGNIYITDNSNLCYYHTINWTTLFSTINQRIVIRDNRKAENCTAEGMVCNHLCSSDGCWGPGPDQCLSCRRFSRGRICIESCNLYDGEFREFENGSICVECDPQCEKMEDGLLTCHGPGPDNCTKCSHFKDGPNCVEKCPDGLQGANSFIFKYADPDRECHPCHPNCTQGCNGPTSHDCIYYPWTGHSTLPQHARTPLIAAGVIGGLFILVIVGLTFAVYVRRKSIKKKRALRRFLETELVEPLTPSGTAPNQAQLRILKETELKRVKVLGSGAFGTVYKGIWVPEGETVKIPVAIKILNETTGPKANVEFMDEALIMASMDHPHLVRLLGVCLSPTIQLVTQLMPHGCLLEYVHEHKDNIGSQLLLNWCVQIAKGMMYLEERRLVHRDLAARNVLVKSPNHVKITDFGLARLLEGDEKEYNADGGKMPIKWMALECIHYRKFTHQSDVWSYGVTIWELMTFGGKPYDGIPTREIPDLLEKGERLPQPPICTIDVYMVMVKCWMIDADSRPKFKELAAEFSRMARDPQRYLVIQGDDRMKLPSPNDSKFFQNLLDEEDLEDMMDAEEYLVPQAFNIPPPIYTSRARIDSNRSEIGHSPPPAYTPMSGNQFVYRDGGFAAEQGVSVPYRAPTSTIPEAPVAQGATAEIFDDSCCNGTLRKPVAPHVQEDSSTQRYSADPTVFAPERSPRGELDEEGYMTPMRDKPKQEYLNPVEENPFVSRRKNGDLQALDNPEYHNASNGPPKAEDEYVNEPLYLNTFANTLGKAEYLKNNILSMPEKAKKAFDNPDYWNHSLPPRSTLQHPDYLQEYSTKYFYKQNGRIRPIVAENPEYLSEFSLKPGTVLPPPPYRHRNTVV

| SMILES | IC50 (HER4) | IC50 (HER2) | IC50 (EGFR) | Tumor volume (NCI-H1975; Day 0, NCI-H1975 nude mice) | Tumor volume (NCI-H1975; Day 2, NCI-H1975 nude mice) | Tumor volume (NCI-H1975; Day 4, NCI-H1975 nude mice) | Tumor volume (NCI-H1975; Day 7, NCI-H1975 nude mice) | Tumor volume (NCI-H1975; Day 9, NCI-H1975 nude mice) | Tumor volume (NCI-H1975; Day 11, NCI-H1975 nude mice) | Inhibition of growth of NCI-H1975 in nude mice (in words) (NCI-H1975; NCI-H1975 nude mice, 60 mpk, 60 mg/kg) | pIC50 [1] | Tolerability in mice (NCI-H1975; 60 mg/kg) | IC50 (EGFR tyrosine kinase) | pIC50 (A431 cell) |
| --- | --- | --- | --- | --- | --- | --- | --- | --- | --- | --- | --- | --- | --- | --- |
| COc1cc2ncnc(Nc3ccc(F)c(Cl)c3)c2cc1NC(=O)C(F)=CCN(C)C (mixture of isomers) [Compound 1, N-(4-((3-chloro-4-fluorophenyl)amino)-7-methoxyquinazolin-6-yl)-4-(dimethylamino)-2-fluorobut-2-enamide] | 21 nM | 168 nM | 1.7 nM | – | – | – | – | – | – | – | – | – | – | – |
| COc1cc2ncnc(Nc3ccc(F)c(Cl)c3)c2cc1NC(=O)/C(F)=C/CN(C)C [Compound 2-1, (Z)—N-(4-((3-chloro-4-fluorophenyl)amino)-7-methoxyquinazolin-6-yl)-4-(dimethylamino)-2-fluorobut-2-enamide] | 23 nM | 75 nM | 1.3 nM | 190 ± 17 mm^3 | 153 ± 11 mm^3 | 121 ± 27 mm^3 | 130 ± 20 mm^3 | 134 ± 27 mm^3 | 164 ± 33 mm^3 | strong inhibitory | – | – | – | – |
| C=C(F)C(=O)Nc1cc2c(Nc3ccc(F)c(Cl)c3)ncnc2cc1OCCCN1CCOCC1 [Compound 5, N-(4-((3-chloro-4-fluorophenyl)amino)-7-(3-morpholinopropoxy)quinazolin-6-yl)-2-fluoroacrylamide] | – | – | – | 177 ± 17 mm^3 | 160 ± 11 mm^3 | 164 ± 27 mm^3 | 147 ± 20 mm^3 | 151 ± 27 mm^3 | 131 ± 33 mm^3 | – | 5.60 | well tolerated | 0.39 nM | 5.49 |
| C=C(F)C(=O)Nc1cc2c(Nc3ccc(F)c(Cl)c3F)ncnc2cc1OCC1CCN(C)CC1 [Compound 6, N-(4-((3-chloro-2,4-difluorophenyl)amino)-7-((1-methylpiperidin-4-yl)methoxy)quinazolin-6-yl)-2-fluoroacrylamide] | – | – | – | 179 ± 13 mm^3 | 154 ± 35 mm^3 | 113 ± 26 mm^3 | 66 ± 16 mm^3 | 58 ± 11 mm^3 | 57 ± 11 mm^3 | – | 5.92 | well tolerated | 0.54 nM | 6.30 |

Second part, led by results:

| IC50 (HER4) | IC50 (HER2) | IC50 (EGFR) | SMILES | Tumor volume (NCI-H1975; Day 0, NCI-H1975 nude mice) | Tumor volume (NCI-H1975; Day 2, NCI-H1975 nude mice) | Tumor volume (NCI-H1975; Day 4, NCI-H1975 nude mice) | Tumor volume (NCI-H1975; Day 7, NCI-H1975 nude mice) | Tumor volume (NCI-H1975; Day 9, NCI-H1975 nude mice) | Tumor volume (NCI-H1975; Day 11, NCI-H1975 nude mice) | Inhibition of growth of NCI-H1975 in nude mice (in words) (NCI-H1975; NCI-H1975 nude mice, 60 mpk, 60 mg/kg) | pIC50 [1] | Tolerability in mice (NCI-H1975; 60 mg/kg) | IC50 (EGFR tyrosine kinase) | pIC50 (A431 cell) |
| --- | --- | --- | --- | --- | --- | --- | --- | --- | --- | --- | --- | --- | --- | --- |
| – | – | 2.5 nM | COCCOc1cc2ncnc(Nc3ccc(F)c(Cl)c3)c2cc1NC(=O)C(F)=CCN(C)C (mixture of isomers) [Compound 3-1, N-(4-((3-chloro-4-fluorophenyl)amino)-7-(2-methoxyethoxy)quinazolin-6-yl)-4-(dimethylamino)-2-fluorobut-2-enamide] | – | – | – | – | – | – | – | – | – | – | – |
| 63 nM | 369 nM | 4.5 nM | COc1cc2ncnc(Nc3ccc(F)c(Cl)c3)c2cc1NC(=O)/C(F)=C\CN(C)C [Compound 2-2, (E)-N-(4-((3-chloro-4-fluorophenyl)amino)-7-methoxyquinazolin-6-yl)-4-(dimethylamino)-2-fluorobut-2-enamide] | – | – | – | – | – | – | – | – | – | – | – |
| – | 62 nM | – | COc1cc2ncnc(Nc3ccc(OCc4ccccn4)c(Cl)c3)c2cc1NC(=O)/C(F)=C/CN(C)C [Compound 4-1, (Z)—N-(4-((3-chloro-4-(pyridin-2-ylmethoxy)phenyl)amino)-7-methoxyquinazolin-6-yl)-4-(dimethylamino)-2-fluorobut-2-enamide] | – | – | – | – | – | – | – | – | – | – | – |
| 206 nM | 64 nM | 9.5 nM | COc1cc2ncnc(Nc3ccc(OCc4ccccn4)c(Cl)c3)c2cc1NC(=O)/C(F)=C\CN(C)C [Compound 4-2, (E)-N-(4-((3-chloro-4-(pyridin-2-ylmethoxy)phenyl)amino)-7-methoxyquinazolin-6-yl)-4-(dimethylamino)-2-fluorobut-2-enamide] | – | – | – | – | – | – | – | – | – | – | – |
